Experiments:
[1] = human, in vivo
Protocol: Each subject was expected to complete all 6 treatment periods and there was a washout of at least 4 days between each treatment period.
Each oral dosing within Treatment Periods consisted of 2 capsules of test drug taken simultaneously at each scheduled dosing. […] Subjects received their study drug after an overnight fast with 240 mL of water in the morning about 8:00 AM. Water was permitted ad libitum except within 1 hour prior to and after study drug administration. No food was allowed for 4 hours post dose.

[2] = system: subjects with Angelman syndrome; experiment: Treatment-related and treatment-emergent adverse events in patients with Angelman syndrome
Protocol: This multicenter, randomized, parallel (3-arm), double-blind, placebo-controlled trial enrolled 88 patients including adults (n=66) and adolescents (n=22) aged 13 to 49 years of age, diagnosed with Angelman syndrome. […] The dosing schedules that were assessed against placebo were once daily (QD): An evening dose titrated to the target dose of 15 mg unless not tolerated; and twice daily (BID): Evening and morning doses titrated to the target doses of 15 mg evening dose and 10 mg morning dose unless not tolerated.
Gastrointestinal adverse events may be considered fundamental to the behavioral disturbances seen in autistic spectrum disorders, such as autism and Angelman syndrome.

[3] = system: subjects with Angelman syndrome; experiment: Efficacy in patients with Angelman syndrome, Clinical Global Impressions (CGI-S, CGI-I); type: in vivo, human
Excerpt: CGI-S scale assessed all sub-domains of Angelman syndrome (gross and fine motor ability, sleep, and adaptive behavior) plus globally by the investigator. […] The Clinical Global Impressions-Improvement (CGI-I) scale was used to assess all sub-domains of Angelman syndrome (gross and fine motor ability, sleep, and adaptive behavior) plus globally by the investigator and caregiver. CGI-I is a 7-point scale in which the investigator rates the improvement or worsening of symptoms compared to baseline.
Moreover, the percentage who were very much improved on CGI-I in the QD group vs placebo went from 20% (vs. 11%) to 27% (vs. 9%) to 33% (vs. 0%) progressing from the oldest to youngest cohorts.

[4] = system: subjects with Angelman syndrome; experiment: Sleep diary in patients with Angelman syndrome; type: in vivo, human; settings: for 6-week LS Mean difference, total sleep time at night / 12-week LS Mean difference, total sleep time at night: change from baseline
Excerpt: The most notable change from patient sleep diaries was in the number of nights slept independently. In the QD dose cohort, one quarter of patients slept every night with parents, at 12 weeks, this had improved to only 1 in 5 nights; in the placebo group, the most effected quarter slept 3 of 4 nights with parents, which had improved to 2 of 4 nights at 12 weeks (P<0.001, Chi Square). The observed and change from baseline in total hours of sleep time at night (assessed from subject Sleep Diary) is provided in Table III.

For `Oc1noc2c1CCNC2` [gaboxadol, 4,5,6,7-tetrahydroisoxazolo [5,4-c]pyridine-3-ol], the “CL (CL/F row, footnote for 10 mg IV)” value ([1]; iv, 10 mg) was 438 mL/min, the “AUC0-∞ Slope (90% CI), dose proportionality assessment” value ([1]; po) was 0.98 (0.95, 1.01) and the “Abdominal Pain upper, subjects (%)” value ([2]; BID dosing (N = 29)) was 0. The “At least 1 Adverse Event, subjects (%)” value ([2]; BID dosing (N = 29)) was 19 (66%)^, the “Diarrhea, subjects (%)” value ([2]; BID dosing (N = 29)) was 1 (3.4%) and the “Gastrointestinal disorders, subjects (%)” value ([2]; BID dosing (N = 29)) was 4 (13.8%). The “Nausea, subjects (%)” value ([2]; BID dosing (N = 29)) was 2 (6.9%), the “Retching, subjects (%)” value ([2]; BID dosing (N = 29)) was 1 (3.4%) and the “Vomiting, subjects (%)” value ([2]; BID dosing (N = 29)) was 1 (3.4%). For the same compound, the “Abdominal Pain upper, subjects (%)” value ([2]; Combined (N = 58)) was 0, the “At least 1 Adverse Event, subjects (%)” value ([2]; Combined (N = 58)) was 37 (64%)^ and the “Diarrhea, subjects (%)” value ([2]; Combined (N = 58)) was 1 (1.7%). The “Gastrointestinal disorders, subjects (%)” value ([2]; Combined (N = 58)) was 4 (6.9%), the “Nausea, subjects (%)” value ([2]; Combined (N = 58)) was 2 (3.4%) and the “Retching, subjects (%)” value ([2]; Combined (N = 58)) was 1 (1.7%). For the same compound, the “Vomiting, subjects (%)” value ([2]; Combined (N = 58)) was 1 (1.7%), the “Abdominal Pain upper, subjects (%)” value ([2]; QD dosing (N = 29)) was 0 and the “At least 1 Adverse Event, subjects (%)” value ([2]; QD dosing (N = 29)) was 18 (62%). For the same compound, the “Diarrhea, subjects (%)” value ([2]; QD dosing (N = 29)) was 0, the “Gastrointestinal disorders, subjects (%)” value ([2]; QD dosing (N = 29)) was 0 and the “Nausea, subjects (%)” value ([2]; QD dosing (N = 29)) was 0. The “Retching, subjects (%)” value ([2]; QD dosing (N = 29)) was 0, the “Vomiting, subjects (%)” value ([2]; QD dosing (N = 29)) was 0 and the CGI-I ([3]; QD 15 mg evening dose, 7-point scale, vs. 3.8 placebo, p=0.0006) was 3.0. For the same compound, the “CGI-I 12-week LS Mean” value ([3]; QD dosing (N = 29), clinician assessed, MMRM) was 3.00 (0.16), the “6-week LS Mean sleep time (total sleep time at night, Sleep Diary)” value (“6-week LS Mean sleep time” below) ([4]; BID dosing (N = 29)) was 8.95 (1.1) hours and the “12-week LS Mean sleep time (total sleep time at night, Sleep Diary)” value (shortened to “12-week LS Mean sleep time”) ([4]; BID dosing (N = 29)) was 8.84 (1.1) hours. For the same compound, the “6-week LS Mean difference, total sleep time at night” value (from here on “6-week LS Mean difference”) ([4]; BID dosing) was 0.30 (1.1) hours, the “12-week LS Mean difference, total sleep time at night” value (“12-week LS Mean difference” below) ([4]; BID dosing) was 0.18 (0.97) hours and the “6-week LS Mean sleep time” value ([4]; Combined (N = 58)) was 8.93 (1.3) hours. The “12-week LS Mean sleep time” value ([4]; Combined (N = 58)) was 8.80 (1.1) hours, the “6-week LS Mean difference” value ([4]; Combined) was 0.22 (0.94) hours and the “12-week LS Mean difference” value ([4]; Combined) was 0.07 (1.0) hours. The “6-week LS Mean sleep time” value ([4]; QD dosing (N = 29)) was 8.91 (1.5) hours, the “12-week LS Mean sleep time” value ([4]; QD dosing (N = 29)) was 8.76 (1.2) hours and the “6-week LS Mean difference” value ([4]; QD dosing) was 0.14 (0.81) hours. For the same compound, the “12-week LS Mean difference” value ([4]; QD dosing) was −0.04 (1.1) hours.

— patent US20210177805A1 (Ovid Therapeutics Inc., priority 2018, published 2021)
